Assays:
MDA-MB-468 = assay: Live/Dead cytotoxicity assay, hybridoma supernatants; conditions: hybridoma supernatant, 5 days
SKBR-3 = assay: as above; conditions: hybridoma supernatant, 5 days
MDA-MB-231 = assay: as above; conditions: hybridoma supernatant, 5 days
Hs888 Lu = conditions: purified antibody, 5 days; four experiments in triplicate; non-cancer cells
SW1116 = conditions: purified antibody, 5 days; four experiments in triplicate
SW620 = conditions: purified antibody, 5 days; four experiments in triplicate
CCD 27sk = conditions: purified antibody, 5 days; four experiments in triplicate; non-cancer cells
PC-3 = system: PC-3; design: key to the marks not given beside the values; conditions: purified antibody, 5 days; four experiments in triplicate
HT-29 = system: HT-29; design: key to the marks not given beside the values; conditions: purified antibody, 5 days; four experiments in triplicate
MB-468 = system: MB-468; design: key to the marks not given beside the values; conditions: purified antibody, 5 days; four experiments in triplicate
OVCAR = system: OVCAR; design: key to the marks not given beside the values; conditions: purified antibody, 5 days; four experiments in triplicate
MB-231 = system: MB-231; design: key to the marks not given beside the values; conditions: purified antibody, 5 days; four experiments in triplicate
MCF-7 = system: MCF-7; design: key to the marks not given beside the values; conditions: purified antibody, 5 days; four experiments in triplicate
NCI H460 = system: NCI H460; design: key to the marks not given beside the values; conditions: purified antibody, 5 days; four experiments in triplicate

Compound	Cytotoxicity (%) MB-468 Average (MDA-MB-468)	Cytotoxicity (%) SKBR-3 Average (SKBR-3)	Cytotoxicity (%) MB-231 Average (MDA-MB-231)	cytotoxicity, NORMAL Hs888 Lu (Hs888 Lu)	cytotoxicity, COLON SW1116 (SW1116)	cytotoxicity, COLON SW620 (SW620)	cytotoxicity, NORMAL CCD27sk (CCD 27sk)	cytotoxicity, PROSTATE PC-3 (PC-3)	cytotoxicity, COLON HT-29 (HT-29)	cytotoxicity, BREAST MB-468 (MB-468)	cytotoxicity, OVARY OVCAR (OVCAR)	cytotoxicity, BREAST MB-231 (MB-231)	cytotoxicity, BREAST MCF-7 (MCF-7)	cytotoxicity, LUNG NCI H460 (NCI H460)
C[C@@H]1C[C@@H]([C@H](O)CC2CC(=O)NC(=O)C2)C(=O)[C@@H](C)C1 [Cycloheximide]	24%	56%	49%											
[N-]=[N+]=[N-].[Na+] [NaN3]				−	−	−	−	+++	+++	+++	+++	+++	+++	+++
